Test results as given in publication PMC11760959, “Broad substrate scope C-C oxidation in cyclodipeptides catalysed by a flavin-dependent filament” (Nature Communications, 2025).

What was measured:
NdasCDO = test system: T1, NdasCDO; assay: UV absorbance, initial rates; format: biochemical, Nocardiopsis dassonvillei; settings: 50 mM Tris pH 9.0, 200 mM NaCl, 30 °C; O2 as oxidant
T1 construct: gene Ndas1146; both subunits co-expressed from pRSFDuet-1 in E. coli BL21(DE3), nickel HisTrap purified; A monomer 22 kDa, B monomer 11 kDa; filament of alternating A and B homodimers (A2B2 repeat)

[1] = target: NdasCDO subunit A (NdasCDO-A), cyclodipeptide oxidase subunit A from Nocardiopsis dassonvillei (Nocardiopsis dassonvillei) (UniProt D7B1W6); assay: cryo-EM structure; helical reconstruction of NdasCDO filaments; purified complex dialysed against 20 mM Tris pH 9, 200 mM NaCl, 5 mM DTT, 4 uM on the grid; local refinement with a mask over two dimers of subunit A and two dimers of subunit B
[2] = target: NdasCDO subunit B (NdasCDO-B), cyclodipeptide oxidase subunit B from Nocardiopsis dassonvillei (Nocardiopsis dassonvillei) (UniProt D7B1W7); assay: as above

| Compound | Km (NdasCDO) [µM] | further results |
| --- | --- | --- |
| O=C1N[C@@H](Cc2c[nH]c3ccccc23)C(=O)N[C@H]1CO [cWS] | 800 | – |
| NdasCDO subunit A (NdasCDO-A), cyclodipeptide oxidase subunit A from Nocardiopsis dassonvillei (from UniProt D7B1W6 2-157) (enzyme) | – | stoichiometry N [1]: 2 |
| O=C1CNC(=O)[C@H](Cc2ccccc2)N1 [cFG] | 4200 | – |
| NdasCDO subunit B (NdasCDO-B), cyclodipeptide oxidase subunit B from Nocardiopsis dassonvillei (from UniProt D7B1W7 1-105) (enzyme) | – | stoichiometry N [2]: 2 |
| O=C1N[C@@H](Cc2c[nH]c3ccccc23)C(=O)N[C@H]1Cc1ccccc1 [cWF] | 80 | – |
